Laboratory results published in ChEMBL document CHEMBL1201862, “PubChem BioAssay data set” (2004).
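Briefly, cells in 96-well plates were exposed to five compound concentrations for 48 h, and endpoints were estimated by linear interpolation. Abbreviation: GI50, concentration required for 50% inhibition of growth.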 The source made the active and inactive calls. Rule as the data show it: active = GI50 up to about 1.1 µM and inactive = higher.

Experiments:
Assay in all cases: NCI-60 cell line screen, 48 h
786-0 = test system: 786-0
A498 = test system: A498
A549 = test system: A549
ACHN = test system: ACHN
BT-549 = test system: BT-549
CAKI-1 = test system: CAKI-1
CCRF-CEM = test system: CCRF-CEM
COLO 205 = test system: COLO 205
DU-145 = test system: DU-145
EKVX = test system: EKVX
HCT-116 = test system: HCT-116
HCT-15 = test system: HCT-15
HL-60 = test system: HL-60
HOP-62 = test system: HOP-62
HOP-92 = test system: HOP-92
HT-29 = test system: HT-29
Hs-578T = test system: Hs-578T
IGROV-1 = test system: IGROV-1
K562 = test system: K562
KM12 = test system: KM12
LOX IMVI = test system: LOX IMVI
M14 = test system: M14
MCF7 = test system: MCF7
MDA-MB-231 = test system: MDA-MB-231
MDA-MB-435 = test system: MDA-MB-435
MDA-N = test system: MDA-N
MOLT-4 = test system: MOLT-4
Malme-3M = test system: Malme-3M
NCI-H226 = test system: NCI-H226
NCI-H23 = test system: NCI-H23
NCI-H460 = test system: NCI-H460
NCI-H522 = test system: NCI-H522
NCI/ADR-RES = test system: NCI/ADR-RES
OVCAR-3 = test system: OVCAR-3
OVCAR-4 = test system: OVCAR-4
OVCAR-5 = test system: OVCAR-5
OVCAR-8 = test system: OVCAR-8
PC-3 = test system: PC-3
RPMI-8226 = test system: RPMI-8226
RXF 393 = test system: RXF 393
SF-268 = test system: SF-268
SF-295 = test system: SF-295
SF-539 = test system: SF-539
SK-MEL-28 = test system: SK-MEL-28
SK-MEL-2 = test system: SK-MEL-2
SK-MEL-5 = test system: SK-MEL-5
SN12C = test system: SN12C
SNB-19 = test system: SNB-19
SW-620 = test system: SW-620
T47D = test system: T47D
TK-10 = test system: TK-10
U-251 = test system: U-251
UACC-257 = test system: UACC-257
UO-31 = test system: UO-31
HCC 2998 = test system: HCC 2998
SK-OV-3 = test system: SK-OV-3
SR = test system: SR

Compound: CCNC(=O)c1cc(Cl)ccc1NC(=O)C12CC3CC(CC(C3)C1)C2
- GI50 (786-0): 22.8 µM (inactive)
- GI50 (A498): > 100 µM (inactive)
- GI50 (A549): 37.2 µM (inactive)
- GI50 (ACHN): 44.1 µM (inactive)
- GI50 (BT-549): 36.6 µM (inactive)
- GI50 (CAKI-1): 30.3 µM (inactive)
- GI50 (CCRF-CEM): 23.2 µM (inactive)
- GI50 (COLO 205): 31 µM (inactive)
- GI50 (DU-145): 28.4 µM (inactive)
- GI50 (EKVX): 21.4 µM (inactive)
- GI50 (HCT-116): 31.3 µM (inactive)
- GI50 (HCT-15): 32.7 µM
- GI50 (HL-60): 25.5 µM (inactive)
- GI50 (HOP-62): 30.1 µM (inactive)
- GI50 (HOP-92): 30.4 µM (inactive)
- GI50 (HT-29): 18 µM (inactive)
- GI50 (Hs-578T): > 100 µM (inactive)
- GI50 (IGROV-1): 33.1 µM (inactive)
- GI50 (K562): 28.2 µM (inactive)
- GI50 (KM12): 27.2 µM (inactive)
- GI50 (LOX IMVI): 42 µM (inactive)
- GI50 (M14): 31.8 µM (inactive)
- GI50 (MCF7): 39.1 µM (inactive)
- GI50 (MDA-MB-231): 71.8 µM (inactive)
- GI50 (MDA-MB-435): 29 µM (inactive)
- GI50 (MDA-N): 22.5 µM (inactive)
- GI50 (MOLT-4): 34.8 µM (inactive)
- GI50 (Malme-3M): > 100 µM (inactive)
- GI50 (NCI-H226): > 100 µM (inactive)
- GI50 (NCI-H23): 56.8 µM (inactive)
- GI50 (NCI-H460): 34.3 µM (inactive)
- GI50 (NCI-H522): 75.5 µM (inactive)
- GI50 (NCI/ADR-RES): 47.8 µM (inactive)
- GI50 (OVCAR-3): 36.1 µM (inactive)
- GI50 (OVCAR-4): 36.1 µM (inactive)
- GI50 (OVCAR-5): 42.3 µM (inactive)
- GI50 (OVCAR-8): 34.3 µM (inactive)
- GI50 (PC-3): 32.1 µM (inactive)
- GI50 (RPMI-8226): 24.5 µM (inactive)
- GI50 (RXF 393): 19.2 µM (inactive)
- GI50 (SF-268): > 100 µM (inactive)
- GI50 (SF-295): 52.1 µM (inactive)
- GI50 (SF-539): > 100 µM (inactive)
- GI50 (SK-MEL-28): 35.8 µM (inactive)
- GI50 (SK-MEL-2): 23.1 µM (inactive)
- GI50 (SK-MEL-5): 30.1 µM (inactive)
- GI50 (SN12C): 32.7 µM (inactive)
- GI50 (SNB-19): 43.6 µM (inactive)
- GI50 (SW-620): 47.2 µM (inactive)
- GI50 (T47D): 34.5 µM (inactive)
- GI50 (TK-10): 52.8 µM (inactive)
- GI50 (U-251): 34.5 µM (inactive)
- GI50 (UACC-257): 30.4 µM (inactive)
- GI50 (UO-31): 22.3 µM (inactive)

Compound: CC1=CC(O)(c2ccccc2)C(N2CCOCC2)N1O (stereo unspecified)
- GI50 (786-0): > 100 µM (inactive)
- GI50 (A549): > 100 µM (inactive)
- GI50 (ACHN): > 100 µM (inactive)
- GI50 (BT-549): > 100 µM (inactive)
- GI50 (CAKI-1): > 100 µM (inactive)
- GI50 (CCRF-CEM): 91.4 µM (inactive)
- GI50 (COLO 205): > 100 µM (inactive)
- GI50 (EKVX): > 100 µM (inactive)
- GI50 (HCC 2998): > 100 µM (inactive)
- GI50 (HCT-116): > 100 µM (inactive)
- GI50 (HCT-15): > 100 µM
- GI50 (HOP-62): > 100 µM (inactive)
- GI50 (HT-29): > 100 µM (inactive)
- GI50 (Hs-578T): > 100 µM (inactive)
- GI50 (IGROV-1): > 100 µM (inactive)
- GI50 (K562): > 100 µM (inactive)
- GI50 (KM12): > 100 µM (inactive)
- GI50 (LOX IMVI): > 100 µM (inactive)
- GI50 (M14): > 100 µM (inactive)
- GI50 (MCF7): > 100 µM (inactive)
- GI50 (MDA-MB-231): > 100 µM (inactive)
- GI50 (MDA-MB-435): > 100 µM (inactive)
- GI50 (MDA-N): > 100 µM (inactive)
- GI50 (MOLT-4): > 100 µM (inactive)
- GI50 (Malme-3M): > 100 µM (inactive)
- GI50 (NCI-H226): > 100 µM (inactive)
- GI50 (NCI-H23): > 100 µM (inactive)
- GI50 (NCI-H460): > 100 µM (inactive)
- GI50 (NCI-H522): > 100 µM (inactive)
- GI50 (NCI/ADR-RES): > 100 µM (inactive)
- GI50 (OVCAR-3): > 100 µM (inactive)
- GI50 (OVCAR-4): > 100 µM (inactive)
- GI50 (OVCAR-5): > 100 µM (inactive)
- GI50 (OVCAR-8): > 100 µM (inactive)
- GI50 (PC-3): > 100 µM (inactive)
- GI50 (RPMI-8226): > 100 µM (inactive)
- GI50 (SF-268): > 100 µM (inactive)
- GI50 (SF-295): > 100 µM (inactive)
- GI50 (SF-539): > 100 µM (inactive)
- GI50 (SK-MEL-28): > 100 µM (inactive)
- GI50 (SK-MEL-2): 81.1 µM (inactive)
- GI50 (SK-MEL-5): > 100 µM (inactive)
- GI50 (SK-OV-3): > 100 µM (inactive)
- GI50 (SN12C): > 100 µM (inactive)
- GI50 (SNB-19): > 100 µM (inactive)
- GI50 (SR): > 100 µM (inactive)
- GI50 (SW-620): > 100 µM (inactive)
- GI50 (T47D): > 100 µM (inactive)
- GI50 (TK-10): > 100 µM (inactive)
- GI50 (U-251): > 100 µM (inactive)
- GI50 (UACC-257): > 100 µM (inactive)
- GI50 (UO-31): > 100 µM (inactive)
